{"source": "patent US11357813B2", "about": "“Composition comprising tannins” (ABOCA S.P.A SOCIETÀ AGRICOLA, priority 2015, dated 2022)", "key": {"[1]": {"test_system": "white male mouse oropharynx sections (oral mucosa)", "test": "FeCl3 staining of oropharynx sections: interaction of tannin-containing extracts and compositions with the oral mucosa", "type": "binding", "settings": "sections treated 1 hour with 10%, 5%, 1% and 0.1% in distilled water (w/v); 2% FeCl3 for 15 minutes; optical microscope 40x", "description": "1. Assessment of interaction among plant extracts containing tannins, plant extracts not containing tannins and oral mucosa.\n2 μm-thick sections of untreated white male mouse oropharynx, fixed in formalin with 10% phosphate buffer, were used.\nSeparate deparaffinized and hydrated sections were treated for 1 hour, respectively with\n1—10%, 5%, 1% and 0.1% tannic acid in distilled water (weight/volume)\n2—10%, 5%, 1% and 0.1% Agrimonia eupatoria extract in distilled water (w/v), equal to, respectively, 100 mg/ml, 50 mg/ml, 10 mg/ml and 1 mg/ml of Agrimonia eupatoria\n3—10%, 5%, 1% and 0.1% Hamamelis Virginiana extract in distilled water (w/v), equal to, respectively, 100 mg/ml, 50 mg/ml, 10 mg/ml and 1 mg/ml of Hamamelis Virginiana\n4—10%, 5%, 1% and 0.1% Aloe vera extract in distilled water (w/v)\n5—10%, 5%, 1% and 0.1% Commiphora myrrha in distilled water (w/v)\n6—composition of the invention in the form of tablets (composition example B) in a 10%, 20% 30% and 50% solution, equal to, respectively, 6.67 mg/ml, 13.34 mg/ml, 20.01 mg/ml and 33.35 mg/ml of Agrimonia eupatoria\n7—composition of the invention in the form of spray (composition example C) in a 10%, 20%, 50% and 100% solution, equal to, respectively, 3.3 mg/ml, 6.6 mg/ml, 16.5 mg/ml and 33 mg/ml of Agrimonia eupatoria, […]\nThe sections were analyzed at the optical microscope (40× magnification) and photographed with a digital camera."}, "laboratory animals": {"test_system": "laboratory animals", "settings": "cited from earlier work"}}, "data": [{"smiles": "O=C(OC[C@H]1O[C@@H](OC(=O)c2cc(O)c(O)c(OC(=O)c3cc(O)c(O)c(O)c3)c2)[C@H](OC(=O)c2cc(O)c(O)c(OC(=O)c3cc(O)c(O)c(O)c3)c2)[C@@H](OC(=O)c2cc(O)c(O)c(OC(=O)c3cc(O)c(O)c(O)c3)c2)[C@@H]1OC(=O)c1cc(O)c(O)c(OC(=O)c2cc(O)c(O)c(O)c2)c1)c1cc(O)c(O)c(OC(=O)c2cc(O)c(O)c(O)c2)c1", "note": "[Sample 1, tannic acid]", "values": [{"measurement": "FeCl3 staining of oropharynx sections", "setting": "[1]", "result": "Staining intensity is dependent on concentration"}, {"measurement": "tumour finding after subcutaneous administration", "setting": "laboratory animals", "result": "onset of hepatic tumours"}]}]}
